Source: ChEMBL document CHEMBL1152816 (J Med Chem, 2009)
pIC50: −log10 of the molar value.

Columns and labels:
[1] = Inhibition of potato 5LOX by enzyme immunoassay; set-up: species or system Solanum tuberosum
[2] = target: T1, Prostaglandin G/H synthase 1 (Bos taurus, UniProt O62664)
T1 sequence (O62664 whole entry): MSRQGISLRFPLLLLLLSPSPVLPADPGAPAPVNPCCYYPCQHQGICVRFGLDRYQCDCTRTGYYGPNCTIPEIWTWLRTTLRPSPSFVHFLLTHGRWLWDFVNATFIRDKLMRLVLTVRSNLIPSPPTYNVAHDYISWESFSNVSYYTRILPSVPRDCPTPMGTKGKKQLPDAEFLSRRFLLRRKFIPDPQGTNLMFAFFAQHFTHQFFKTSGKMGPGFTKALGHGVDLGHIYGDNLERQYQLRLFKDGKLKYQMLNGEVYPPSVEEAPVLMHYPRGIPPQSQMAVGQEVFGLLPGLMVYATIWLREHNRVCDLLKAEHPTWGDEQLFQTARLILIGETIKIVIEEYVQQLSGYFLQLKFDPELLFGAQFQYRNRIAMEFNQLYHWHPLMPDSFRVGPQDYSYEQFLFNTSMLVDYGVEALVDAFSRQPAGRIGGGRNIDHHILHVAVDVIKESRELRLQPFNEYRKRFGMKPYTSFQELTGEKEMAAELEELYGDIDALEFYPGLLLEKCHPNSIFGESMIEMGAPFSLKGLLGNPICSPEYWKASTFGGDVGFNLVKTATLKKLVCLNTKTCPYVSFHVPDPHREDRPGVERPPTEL
Description: Inhibition of bovine COX1 by enzyme immunoassay

Rattus norvegicus [3] = test: Antiinflammatory activity against carrageenan-induced foot paw edema in po dosed rat after 3 hrs; assay type: functional
[4] = target: T2, Prostaglandin G/H synthase 2 (Homo sapiens, UniProt P35354); test: Inhibition of human recombinant COX2 by enzyme immunoassay
T2 sequence (P35354 whole entry): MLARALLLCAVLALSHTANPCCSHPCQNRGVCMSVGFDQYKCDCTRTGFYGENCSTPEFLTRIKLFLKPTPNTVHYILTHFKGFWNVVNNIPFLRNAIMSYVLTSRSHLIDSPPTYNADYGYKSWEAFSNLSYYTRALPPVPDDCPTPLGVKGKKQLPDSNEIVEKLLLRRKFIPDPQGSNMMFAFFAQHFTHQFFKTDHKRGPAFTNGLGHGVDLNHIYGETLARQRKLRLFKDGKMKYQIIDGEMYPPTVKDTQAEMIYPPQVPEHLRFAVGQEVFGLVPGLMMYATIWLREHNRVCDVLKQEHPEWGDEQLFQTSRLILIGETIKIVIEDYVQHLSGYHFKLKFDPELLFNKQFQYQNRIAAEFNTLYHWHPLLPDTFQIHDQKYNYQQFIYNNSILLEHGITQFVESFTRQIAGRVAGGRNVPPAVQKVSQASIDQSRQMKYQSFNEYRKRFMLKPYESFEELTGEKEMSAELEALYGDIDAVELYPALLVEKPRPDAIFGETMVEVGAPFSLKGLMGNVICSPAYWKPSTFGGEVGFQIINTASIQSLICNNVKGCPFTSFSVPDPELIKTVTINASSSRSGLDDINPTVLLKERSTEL

Rattus norvegicus [5] = test: Antiinflammatory activity against carrageenan-induced foot paw edema in rat at 150 mg/kg, po after 3 hrs; assay type: functional

pIC50 [1] | pIC50 [2] | pIC50 [4] | SMILES | ED50 (Rattus norvegicus [3]) [mg/kg] | Activity (Rattus norvegicus [5]) [%]
5.40 | – | – | O=C(O)/C=C/c1ccc(O)c(O)c1 [CAFFEIC ACID] | – | –
5.36 | 5.11 | 5.74 | CS(=O)(=O)c1ccc(-n2nc(C(F)(F)F)cc2-c2ccn(C(F)F)c(=O)c2)cc1 | 42.9 | –
6.41 | 5.08 | 6.14 | NS(=O)(=O)c1ccc(-n2nc(C(F)(F)F)cc2-c2ccnc(Cl)c2)cc1 | > 150 | 33.3
5.30 | 4.88 | 6.16 | NS(=O)(=O)c1ccc(-n2nc(C(F)(F)F)cc2-c2ccn(C(F)F)c(=O)c2)cc1 | 27.7 | –
6.33 | 3.59 | – | CS(=O)(=O)c1ccc(-n2nc(C(F)(F)F)cc2-c2ccnc(Cl)c2)cc1 | > 150 | 43.1
– | – | – | CC(C)Cc1ccc(C(C)C(=O)O)cc1 (centres undefined) [IBUPROFEN] | 67.4 | –
